Test results: PMC8667948, “Mechanism of biotin carboxylase inhibition by ethyl 4-[[2-chloro-5-(phenylcarbamoyl)phenyl]sulphonylamino]benzoate” (Journal of Enzyme Inhibition and Medicinal Chemistry, 2021)
Where two headings read alike, the source gives them in different places.

Legend:
BC = tested on: BC; design: method as in PMID 4922289; settings: % activity of biotin; cited from earlier work
[1] = biological target: T1, Acetyl-CoA carboxylase (ACC) (Escherichia coli, UniProt P24182); assay: ACC assay, ATP varied (BC:BCCP:CT 1:2:1); type: biochemical; settings: ATP varied 1.0-16 µM, acetyl-CoA 0.20 mM, SABA1 0, 50, 100 µM
T1 construct: His tag (N); made in house
Experimental: As stated above, the components of ACC were purified separately. Purified BC, BCCP, and CT were combined in a 1:2:1 molar ratio and allowed to equilibrate for 1 h prior to assaying ACC. To determine the inhibition pattern versus ATP, ATP was varied from 1.0 µM to 16 µM. SABA1 was held at fixed concentrations of 0.0 µM, 50 µM, or 100 µM. Acetyl-CoA was held constant at 0.20 mM. The reaction was started by the addition of enzyme.
Non-competitive inhibition data were fitted to Equation (2) where v is the experimentally determined velocity, V is maximal velocity, A is substrate concentration, Km is the Michaelis constant, I is inhibitor concentration and Kii is the inhibition constant for the intercept and Kis is the inhibition constant for the slope. (2) v=VA/Km(1+I/Kis)+A(1+I/Kii)

[2] = tested on: efflux compromised P. aeruginosa strain PAO397; design: method as in PMID 26169404; settings: cited from earlier work
biotin carboxylase (BC) [3] = biological target: T2, biotin carboxylase (BC) (Escherichia coli, UniProt P24182); assay: Biotin carboxylase inhibition assay, ATP or biotin varied (pyruvate kinase/lactic dehydrogenase coupled); type: biochemical; settings: SABA1 0, 75, 150 µM
T2 construct: His tag (N); made in house
Experimental: (§1) For inhibition studies that varied ATP or biotin, initial velocities were measured as previously reported. In brief, pyruvate kinase and lactic dehydrogenase were used to couple ADP production to NADH oxidation, which can be measured spectrophotometrically at 340 nm. For inhibition studies varying ADP, activity was determined by following the production of inorganic phosphate (Pi) using the EnzChek® Phosphate Assay Kit (Molecular Probes) according to the manufacturer’s protocol. In brief, purine nucleoside phosphorylase converts 2-amino-6-mercapto-7-methylpurine riboside to ribose 1-phosphate and 2-amino-6-mercapto-7-methylpurine in the presence of Pi. This reaction is monitored at […][32]. Kinetic data were collected on a Cary60 UV-Vis spectrophotometer (Agilent Technologies)
To determine the inhibition pattern versus ATP, ATP was varied from 0.05 mM to 1.0 mM. SABA1 was held at fixed concentrations of 0.0 µM, 75 µM, or 150 µM. Biotin was held constant at 40 mM. […]
Data for inhibition studies varying ATP or biotin were analysed by nonlinear regression using the programs of Cleland[33]. Competitive inhibition data were fitted to Equation (1) where v is the experimentally determined velocity, V is maximal velocity, A is substrate concentration, Km is the Michaelis constant, I is inhibitor concentration and Kis is the inhibition constant for the slope. […]

E. coli ACC = tested on: E. coli ACC; design: method as in PMID 26169404; settings: cited from earlier work
biotin carboxylase (BC) [4] = biological target: T2, biotin carboxylase (BC); assay: Multiple inhibition assay (Yonetani-Theorell) on BC; type: biochemical; settings: aminooxazole varied 0.2-3.2 µM at fixed SABA1 0, 75, 150 µM; ATP 0.2 mM, biotin 40 mM; intersecting pattern
Experimental: To determine the multiple inhibition pattern with respect to ATP, aminooxazole was varied from 0.2 µM to 3.2 µM. SABA1 was held at fixed concentrations of 0.0 µM, 75 µM, or 150 µM. ATP and biotin were held constant at 0.2 mM and 40 mM, respectively. To determine the multiple inhibition pattern with respect to biotin, desthiobiotin was varied from 1.0 mM to 20 mM. SABA1 was held at fixed concentrations of 0.0 µM, 75 µM, or 150 µM. ATP and biotin were held constant at 0.2 mM and 40 mM, respectively.
Multiple inhibition data were fitted to Equation (3) where v is the experimentally determined velocity, V is maximal velocity, L and J are the concentration of the two inhibitors, KL and KJ are the apparent inhibition constants of those respective inhibitors, and α is the interaction factor of the two inhibitors. (3) v=V/1+L/KL+J/KJ+LJ/αKLKJ
Competitive inhibition means that binding of the inhibitor and the substrate to the enzyme are mutually exclusive. […] To determine if SABA1 can bind in the ATP binding site, biotin binding site or both, multiple inhibition analysis was performed as described by Yonetani and Theorell[42]. Multiple inhibition analysis is used to define the topological relationship between two different enzyme inhibitors. Initial velocities are measured while one inhibitor is varied against fixed increasing concentrations of the second inhibitor. […]

[5] = tested on: efflux compromised E. coli (ΔtolC::tet); settings: cited from earlier work
biotin carboxylase (BC) [6] = biological target: T2, biotin carboxylase (BC); assay: Biotin carboxylase inhibition versus ADP (EnzChek Pi assay); type: biochemical; settings: ADP varied 0.19-19 µM; ATP 0.6 mM; biotin 40 mM; SABA1 100 µM; fit to Equation (5)
Experimental: as §1
To determine the inhibition pattern versus ADP using the Pi assay, ADP was varied from 0.19 µM to 19 µM. ATP was held constant at 0.6 mM, biotin was held constant 40 mM, and SABA1 was held constant at 100 µM. Each reaction cocktail was incubated in the presence or absence of SABA1 for 10 min. The reaction was started by addition of biotin.
Data for inhibition studies varying ADP were analysed by nonlinear regression using the program Enzfitter[34]. […]

Row | Compound | activity as slow alternate substrate, relative to biotin (BC) [%] | Ki ([1]; read-out: Kii, non-competitive inhibition versus ATP) [µM] | Ki ([1]; read-out: Kis, non-competitive inhibition versus ATP) [µM] | prolongs the doubling time [2] [%] | Ki (biotin carboxylase (BC) [3]; ATP varied 0.05-1.0 mM, biotin constant 40 mM (subsaturating), read-out: Kis, competitive inhibition versus ATP) [µM] | Ki (biotin carboxylase (BC) [3]; biotin varied 20-200 mM, ATP constant 0.2 mM (subsaturating), read-out: Kis, competitive inhibition versus biotin) [µM] | IC50 (E. coli ACC) [µM] | α value (interaction factor of the two inhibitors) (biotin carboxylase (BC) [4]) | MIC [5] [µM] | Ki, uncompetitive inhibition versus ADP (biotin carboxylase (BC) [6]) [µM]
1 | C[C@@H]1NC(=O)N[C@@H]1CCCCCC(=O)O [Desthiobiotin] | 0.2 |  |  |  |  |  |  |  |  | 
2 | CCOC(=O)c1ccc(NS(=O)(=O)c2cc(C(=O)Nc3ccccc3)ccc2Cl)cc1 [SABA1, ethyl 4-[[2-chloro-5-(phenylcarbamoyl)phenyl]sulfonylamino]benzoate] |  | 23.3 ± 4.4 | 96.3 ± 31.6 | 30 | 242 ± 32 | 142 ± 12.3 | 4 | 0.6 | 0.45 to 0.9 | 10.3 ± 0.1
